# Biological target: human serum albumin (HSA) (Homo sapiens, UniProt P02768)
# Test: fluorescent probe displaced from HSA by GdLx
# Type: binding
# Sequence of human serum albumin (HSA) (P02768 25-609): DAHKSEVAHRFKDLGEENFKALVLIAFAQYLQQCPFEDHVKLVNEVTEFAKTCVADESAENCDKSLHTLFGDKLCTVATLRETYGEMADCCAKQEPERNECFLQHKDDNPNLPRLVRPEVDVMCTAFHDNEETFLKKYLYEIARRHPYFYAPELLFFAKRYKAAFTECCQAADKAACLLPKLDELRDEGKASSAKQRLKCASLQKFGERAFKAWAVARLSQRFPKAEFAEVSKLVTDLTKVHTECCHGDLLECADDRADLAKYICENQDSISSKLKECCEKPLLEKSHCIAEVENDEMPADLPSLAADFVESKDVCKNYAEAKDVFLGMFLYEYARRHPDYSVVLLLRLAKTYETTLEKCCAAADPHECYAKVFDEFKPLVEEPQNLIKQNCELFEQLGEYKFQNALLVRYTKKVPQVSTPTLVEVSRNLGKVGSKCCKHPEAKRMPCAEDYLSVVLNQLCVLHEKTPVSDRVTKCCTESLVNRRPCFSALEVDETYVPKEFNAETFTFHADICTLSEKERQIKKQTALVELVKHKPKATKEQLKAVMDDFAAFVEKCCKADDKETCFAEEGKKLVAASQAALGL
smiles,measurement,value
CN(C)c1cccc2c(S(=O)(=O)NCC(=O)O)cccc12 [dansylglycine],fluorescent probe displaced from HSA by GdLx,Determined by displacement of fluorescent dansylglycine from HSA upon addition of GdLx

# — article PMC6594366 (Journal of the American Chemical Society, 2018)
